# Test results taken from patent publication US11612652B2, “Lipids as synthetic vectors to enhance antigen processing and presentation ex-vivo in dendritic cell therapy” (PDS Biotechnology Corporation, priority 2015, dated 2023).
# Key:
# [1] = tested on: mouse bone marrow derived dendritic cells (BMDCs); test: Alexa Fluor 647-OVA uptake by BMDCs, flow cytometry; type: cell-based; conditions: 50 μM cationic lipid, 20 μg/ml Alexa Fluor 647-OVA, 37° C., 10-60 minutes, versus 280 mM sucrose diluent
# Procedure: In order to determine the effect of cationic lipids on the uptake of protein antigen, mouse bone marrow derived dendritic cells (BMDCs) were pulsed with Alexa Fluor®647-OVA conjugate and quantified ovalbumin uptake by BMDCs using flow cytometry. Briefly, 2×10^6 cells/ml BMDCs were incubated at 37° C. for 10-60 minutes in serum free RPMI 1640 cell culture media containing 20 μg/ml ovalbumin (Ovalbumin Alexa Fluor® 647 conjugate; life technologies, cat #034784) and 50 μM cationic lipid (RDOTAP) or 280 mM sucrose diluent. Cells were washed after pulsing to remove non-cell associated ovalbumin and fixed with 1% formaldehyde for flow cytometer analysis. The ovalbumin uptake was quantified using BD LSR II flow cytometer.
# [2] = tested on: BMDC (CD11c positive cells); test: DQ-OVA uptake and processing by BMDC, flow cytometry; type: cell-based, mouse
# Procedure: In order to determine the effects of cationic lipids on antigen uptake and processing by dendritic cells ex-vivo, a fluorescent ovalbumin protein called DQ-OVA was used. DQ-OVA is non-fluorescent when intact, but emits both red and green fluorescence when the protein is degraded. BMDC were incubated at 37° C. or 4° C. for 1 hr with DQ-OVA alone, or DQ-OVA mixed with different concentrations of the cationic lipid DOTAP. The cells were then washed, fixed, and stained with fluorescent antibodies to CD11c, a marker for dendritic cells. Cells were then analyzed on an LSRII flow cytometer in both red and green fluorescent channels.
# This represents the well-known mannose receptor mediated uptake of OVA by DC. […] Graphical representation of the fluorescent uptake of DQ-OVA into BMDC measured by flow cytometry.
# This uptake and processing was inhibited at 4° C. confirming that active cytoskeletal rearrangements are required for this type of uptake. […] The effect of R-DOTAP was concentration dependent with 50 uM showing the greatest effect. To determine if the R-DOTAP enhancement of protein uptake is cell dependent, a mouse epithelial cell line was incubated with DQ-OVA under identical conditions as the BMDC. […] Further, they indicate that this enhancement is selective for dendritic cells and not other, non-antigen presenting cell types.
# In order to determine whether lipid adjuvants could mediate the same effect as R-DOTAP, BMDC were incubated with DQ-OVA in media alone or with R-DOTAP as described for FIG. 1. In addition, BMDC were incubated under identical conditions with the potent lipid adjuvant lipopolysaccharide (LPS). Mouse bone marrow DC were incubated in the presence of fluorescent DQ-OVA for one hour at either 37° C. or 4° C./azide in the presence of 25 μM DOTAP nanoparticles, 10 μg/ml LPS or media alone, and analyzed by flow cytometry. […] Monophorphoryl lipid-A (MPL) is a lower toxicity derivative of LPS that is now an FDA approved adjuvant in several vaccines.
smiles,measurement,setting,value
"CCCCCCCC/C=C\CCCCCCCC(=O)OCC(C[N+](C)(C)C)OC(=O)CCCCCCC/C=C\CCCCCCCC (centres unmarked) [R-DOTAP, 1,2-dioleoyl-3-trimethylammonium propane]","ovalbumin (protein) uptake by BMDC, fluorescence intensity",[1],significantly increased the protein uptake by BMDC at all time points measured
same,DQ-OVA uptake at 4° C.,"[2]; 4° C., 1 hr",Significant uptake was even seen at 4 °C
same,"DQ-OVA uptake and processing, mean green fluorescence of CD11c positive cells","[2]; 37° C., 1 hr, versus DQ-OVA alone",doubling of fluorescence
same,concentration showing the greatest effect on DQ-OVA uptake,[2]; concentration dependent effect,50 µM
same,enhancement of DQ-OVA uptake and processing compared with known adjuvants (red fluorescence),"[2]; one hour, 25 μM DOTAP nanoparticles, 10 μg/ml LPS or media alone",greatly enhanced
